Results on 10 compounds are retold here after patent publication US9365583B2, “Substituted pyrazoles and uses thereof” (Genentech, Inc., priority 2013, dated 2016).

Some results are limits rather than exact numbers.

This assay concerns the target T1, N-terminally GST-tagged DLK (catalytic domain amino acid 1-520) (Homo sapiens, UniProt Q12852).
T1 construct: N-terminally GST-tagged DLK (catalytic domain amino acid 1-520); purchased Carna Bioscience
T1 sequence (Q12852 1-520): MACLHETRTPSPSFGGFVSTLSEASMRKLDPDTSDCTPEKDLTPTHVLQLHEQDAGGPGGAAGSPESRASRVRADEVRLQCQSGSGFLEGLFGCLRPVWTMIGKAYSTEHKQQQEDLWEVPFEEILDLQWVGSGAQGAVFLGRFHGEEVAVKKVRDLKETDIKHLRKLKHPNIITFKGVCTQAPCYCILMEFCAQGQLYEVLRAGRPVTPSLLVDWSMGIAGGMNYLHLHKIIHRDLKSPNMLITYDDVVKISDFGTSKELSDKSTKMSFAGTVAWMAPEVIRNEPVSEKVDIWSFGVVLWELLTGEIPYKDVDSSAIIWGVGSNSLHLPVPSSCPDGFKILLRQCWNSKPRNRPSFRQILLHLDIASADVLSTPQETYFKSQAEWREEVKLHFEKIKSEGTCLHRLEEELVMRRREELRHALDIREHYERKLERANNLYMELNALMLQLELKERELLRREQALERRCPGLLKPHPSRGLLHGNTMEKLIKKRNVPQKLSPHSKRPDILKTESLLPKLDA
Put plainly: DLK TR-FRET inhibition assay. The format is biochemical. The conditions noted are these: 5 nM GST-DLK, 40 nM HIS-MKK4 K131M substrate, 30 μM ATP, 60 minutes at ambient temperature. The essentials: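 Phosphorylated MKK4 was quantified by TR-FRET (Eu-labelled anti-phospho-MKK4, D2 anti-HIS; 3 h, 665 and 615 nm emission) after EDTA quench. Reactions held 5 nM GST-tagged DLK catalytic domain (1-520), 40 nM HIS-MKK4 K131M substrate, 30 μM ATP and compound (3-fold series from 20 uM), 60 min, room temperature, pH 7.5.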
A general note: In TR-FRET formats the signal depends on donor and acceptor labels being close together.
As to `CC(C)n1nc(-c2cnc(N)c(C(F)(F)F)c2)cc1[C@H]1[C@@H]2CC(N3CCN4CCOCC4C3)C[C@@H]21` (single isomer, unassigned) [compound 196], the affinity, expressed as Ki, was 3.4 nM. That is a single-digit nanomolar value.
Take `CC(C)n1nc(-c2cnc(N)c(C(F)(F)F)c2)cc1[C@H]1[C@@H]2C[C@@H](N(C)C3COC3)C[C@@H]21` [compound 50, 5-(1-isopropyl-5-((1R,3s,5S,6r)-3-(methyl(oxetan-3-yl)amino)bicyclo[3.1.0]hexan-6-yl)-1H-pyrazol-3-yl)-3-(trifluoromethyl) pyridin-2-amine]: the Ki (as a rule, the equilibrium dissociation constant of an inhibitor or competing ligand from its target) is 2.83 nM.
As for `CO[C@H]1CCN([C@@H]2C[C@@H]3[C@H](C2)[C@H]3c2cc(-c3cnc(N)c(OC(F)F)c3)nn2C(C)C)C1` [compound 215, 3-(difluoromethoxy)-5-(1-isopropyl-5-((1R,3s,5S,6S)-3-((S)-3-methoxypyrrolidin-1-yl)bicyclo [3.1.0]hexan-6-yl)-1H-pyrazol-3-yl)pyridin-2-amine], the figure is 1.4 nM; as for `CC(C)n1nc(-c2cnc(N)c(C(F)(F)F)c2)cc1[C@H]1[C@@H]2C[C@H](N3CCN[C@@H](C)C3)C[C@@H]21` [compound 234, 5-(1-isopropyl-5-((1R,3r,5S,6S)-3-((S)-3-methylpiperazin-1-yl)bicyclo[3.1.0]hexan-6-yl)-1H-pyrazol-3-yl)-3-(trifluoromethyl) pyridin-2-amine], 4.9 nM.
As for `Nc1ncc(-c2cc([C@H]3[C@@H]4C[C@@H](N5CCCOCC5)C[C@@H]43)n(CC(F)F)n2)cc1OC(F)F` [compound 232, 5-(5-((1R,3s,5S,6r)-3-(1,4-oxazepan-4-yl)bicyclo[3.1.0]hexan-6-yl)-1-(2,2-difluoroethyl)-1H-pyrazol-3-yl)-3-(difluoromethoxy) pyridin-2-amine], the affinity corresponds to a Ki of 1.1 nM. This Ki is about 4.5-fold lower than that of the compound before.
As for `CO[C@H]1CCN([C@@H]2C[C@@H]3[C@H](C2)[C@H]3c2cc(-c3cnc(N)c(OC(F)F)c3)nn2CC2CC2)C1` [compound 159, 5-(1-(cyclopropylmethyl)-5-((1R,3s,5S,6S)-3-((S)-3-methoxy-pyrrolidin-l-yl)bicyclo[3.1.0]hexan-6-yl)-1H-pyrazol-3-yl)-3-(difluoromethoxy)pyridin-2-amine], the figure is 1.9 nM.
`Nc1ncc(-c2cc([C@H]3[C@@H]4C[C@@H](N5CCOCC5)C[C@@H]43)nn2C2CCC2)cc1OC(F)F` [compound 133, 5-(1-cyclobutyl-3-((1R,3s,5S,6r)-3-morpholinobicyclo[3.1.0]hexan-6-yl)-1H-pyrazol-5-yl)-3-(difluoromethoxy)pyridin-2-amine] yielded an inhibition constant Ki not below 321 nM.
Next, `CC(C)n1nc(-c2cnc(N)c(OC(F)F)c2)cc1[C@H]1[C@@H]2C[C@H](N3CC4CC(C3)O4)C[C@@H]21` [compound 271, 5-(5-((1R,3r,5S,6r)-3-(6-oxa-3-azabicyclo[3.1.1]heptan-3-yl)bicyclo[3.1.0]hexan-6-yl)-1-iso-propyl-1H-pyrazol-3-yl)-3-(difluoro-methoxy)pyridin-2-amine]: 2.6 nM; `CC(C)n1nc(-c2cnc(N)c(OC(F)F)c2)cc1[C@H]1[C@@H]2C[C@@H](N3CCOC[C@@H]3C)C[C@@H]21` [compound 79, 3-(difluoromethoxy)-5-(1-isopropyl-5-((1R,3s,5S,6S)-3-((S)-3-methylmorpholino)bicyclo[3.1.0]hexan-6-yl)-1H-pyrazol-3-yl) pyridin-2-amine]: 1.1 nM; `CC(C)n1nc(-c2cnc(N)c(OC(F)(F)F)c2)cc1[C@H]1[C@@H]2C[C@H](N3CCCOCC3)C[C@@H]21` [compound 101, 5-(5-((1R,3r,5S,6r)-3-(1,4-oxazepan-4-yl)bicyclo[3.1.0]hexan-6-yl)-1-isopropyl-1H-pyrazol-3-yl)-3-(trifluoromethoxy)pyridin-2-amine]: 0.44 nM.
